According to patent US20240092728A1, “HYDROXY-SUBSTITUTED SPHINGOLIPIDS” (Evonik Operations GmbH, priority 2021, published 2024):

Assays:
[1] = tested on: sun-stressed skin; assay: In-vivo study: skin colour measurement (L*, ITA°) on outside of forearm; set-up: species or system human; conditions: formulation applied twice daily to forearm; for ΔITA° W2 − W0 / ΔL* W2 − W0: after 2 weeks; for ΔITA° W4 − W0 / ΔL* W4 − W0: after 4 weeks; for ΔITA° W8 − W0 / ΔL* W8 − W0: after 8 weeks
Protocol: (§1) For the in-vivo study, 24 test subjects (male and female) with sun-stressed skin were recruited. In order to ensure sun-stressed skin, this study was carried out in the period from September to November. […] The test subjects received either two different test formulations, which they applied to one forearm each, or one test formulation. which was applied to one forearm with the second forearm remaining untreated (control). The test formulations were a vehicle and a formulation containing 0.1% of hydroxybutyroyl phytosphingosine (hydroxybutyroyl PS). The various test combinations were assigned to the test subjects randomly. The test subjects applied the test formulations for a period of 8 weeks twice daily to the inside and outside of in each case one forearm. The following measurements on the forearms were carried out before the start of application and after two, four and eight weeks: • 1. Colour measurement: A colorimeter probe (Skin-Colorimeter CL 400, Courage & Khazaka, Cologne) was used to measure the parameters L* and ITA° on the outside of the forearm. L* describes the black/white value of the skin, ITA° describes the skin tone. When skin becomes lighter, both values show an increase. • 2. Skin roughness: This parameter was determined by means of a special camera on the inside of the forearm (Visioscan VC 98, Courage & Khazaka). This camera records a digital black-and-white image of the skin. The grayscale distribution of the image can be used to determine the skin roughness. • 3. Density of the dermis: The density of the dermis was determined by ultrasound on the outside of the forearm (SkinLab Combo, Cortex Technologies, Denmark). For this, a special probe transmits an ultrasound signal to the skin and records the reflection. This reflection can be used to determine a value for the skin density. A reduced skin density is shown in particular by areas of skin that have been very strongly exposed to sunlight.

[2] = tested on: sun-stressed skin; assay: In-vivo study: skin roughness on inside of forearm (Visioscan VC 98); set-up: species or system human; unit not given here; conditions: formulation applied twice daily to forearm; for Decrease in roughness W2 − W0: after 2 weeks; for Decrease in roughness W4 − W0: after 4 weeks; for Decrease in roughness W8 − W0: after 8 weeks
Protocol: as §1

[3] = tested on: normal human epidermal keratinocytes (NHEK); assay: ROS production after UV irradiation (2,7-DCDHF-DA fluorescence); assay type: cell-based
Protocol: (§2) The extent to which the substances of the invention are able to exert a protective effect on normal human epidermal keratinocytes (NHEK) exposed to UV irradiation was examined.
(§3) For this, corresponding investigations were carried out of biomarkers for reactive oxygen species (ROS), quantified with 2,7-dichlorodihydrofluorescein diacetate, and DNA damage and repair, quantified by the Comet assay.
The intracellular formation of reactive […] species (ROS) is inter alia a factor that leads to damage of cellular DNA by UV radiation.
96-well plates were seeded with keratinocytes, which were cultured for 24 hours in culture medium and then for a further 24 hours in assay medium. The medium was then replaced by a test medium containing the test compounds or the references (100 μM vitamin E and 10 μM EGCG) or in which they were absent (irradiated control) and the cells were preincubated for 24 hours. After preincubation, the medium was removed and replaced by assay medium, the fluorescent probe (2,7-dichlorodihydrofluorescein diacetate (10 μM 2,7-DCDHF-DA in assay medium) was added and the cells were incubated at 37° C. for 30 minutes. The cells were then washed with PBS solution and irradiated with 100 mJ/cm^2 UVB+UVA (+0.7 J/cm^2) without compounds or references. The lamp used was a SOL500 solar simulator with H2 filter (Dr. Honle, AG). After irradiation, the cells were incubated for 30 minutes. An unirradiated control and the conditions without sample (background noise) were carried out in parallel.
All experimental conditions were carried out in triplicate.
The emitted intensity of fluorescence (ex=485 nm, em=538 nm) was measured using an EnVision® (Perkin Elmer) microplate reader.
The intensity of fluorescence of the metabolized sample (DCF) was proportional to the formation of ROS. ROS production was therefore expressed as the relative intensity of fluorescence.

[4] = tested on: normal human epidermal keratinocytes (NHEK); assay: DNA damage and repair after UV irradiation (Comet assay); assay type: cell-based
Protocol: as §2, §3
6-well plates were seeded with the keratinocytes, which were incubated for 48 hours in culture medium, with the medium replenished after 24 hours. The medium was then replaced by culture medium containing the test compounds or the references (0.3 mM control) or in which they were absent (control) and the cells were incubated for 24 hours. After the preincubation, the culture medium was removed and assay medium again added and the cells were irradiated with 250 mJ/cm^2 UVB+UVA (+1.6 J/cm^2) in the absence of the compounds. The lamp used was a SOL500 solar simulator (Dr. Hönle, AG) fitted with an H2 filter. An unirradiated control condition was carried out in parallel. All experimental conditions were carried out in duplicate.
At the end of the irradiation, the culture supernatants were discarded and the cells were washed with phosphate-buffered saline (PBS) prior to analysis.
The cells were trypsinized and counted and the supernatant was removed after centrifugation. The cells were then washed with PBS solution and suspended in the same PBS solution so as to achieve a cell concentration of 1×10^5 cells/ml. The cell suspension was then mixed with molten (37° C.) 1% agarose gel of low melting point and pipetted onto the Comet microscope slides (duplicate analysis for each condition). For cell lysis, the microscope slides were immersed in a freshly prepared alkaline solution (200 mM NaOH containing 1 mM EDTA, pH>13) on an electrophoresis support. The gel electrophoresis was carried out at 21 volts for 30 minutes. The Comet microscope slides were washed twice with water, each time for 5 minutes, then washed with 70% ethanol for 5 minutes and air-dried at 37° C. for 15 minutes.
After the electrophoresis, each dried sample was stained with a DNA intercalating fluorescent dye (SYBR Green solution). The cells were then observed in epifluorescence using an automated IN Cell Analyzer™ 2200 microscope image analyser (GE Healthcare) (X10 objective lens). On excitation (ex 494 nm, em 524 nm), the DNA-bound SYBR® Green emits green light. […] If DNA damage has occurred, the alkali treatment causes the DNA to […], releasing fragments that migrate outside the cell when exposed to an electric field. The negatively charged DNA migrates to the anode, the extrusion length being proportional to the relaxation of the supercoiled structure, which is an indicator of damage. When alkaline electrophoresis conditions are employed, the distribution of the DNA between the tail and comet head can be used to determine the extent of the DNA damage. The images of the cells were analysed with OpenComet in conjunction with ImageJ software. In each replicate of the analysis, a minimum value of 500 events was analysed.

[5] = tested on: sun-stressed skin; assay: In-vivo study: density of the dermis by ultrasound on outside of forearm; set-up: species or system human; unit not given here; conditions: formulation applied twice daily to forearm; for Δ skin density W2 − W0: after 2 weeks; for Δ skin density W4 − W0: after 4 weeks; for Δ skin density W8 − W0: after 8 weeks
Protocol: as §1

[6] = 10 μM, 24 h preincubation, 100 mJ/cm^2 UVB+UVA
[7] = 10 μM, 24 h preincubation, 250 mJ/cm^2 UVB+UVA
[8] = 5 μM, 24 h preincubation, 100 mJ/cm^2 UVB+UVA

Compound | ΔITA° W2 − W0 [1] | ΔL* W2 − W0 [1] | ΔITA° W4 − W0 [1] | ΔL* W4 − W0 [1] | ΔITA° W8 − W0 [1] | ΔL* W8 − W0 [1] | Decrease in roughness W2 − W0 [2] | Decrease in roughness W4 − W0 [2] | Decrease in roughness W8 − W0 [2] | protective effect against the formation of ROS [3, 6] [%] | protective effect against DNA damage after UV irradiation [4, 7] [%] | Δ skin density W2 − W0 [5] | Δ skin density W4 − W0 [5] | Δ skin density W8 − W0 [5] | protective effect against the formation of ROS [3, 8] [%] | protective effect against DNA damage after UV irradiation ([4]; 5 μM, 24 h preincubation, 250 mJ/cm^2 UVB+UVA) [%] | protective effect against DNA damage after UV irradiation ([4]; 2 μM, 24 h preincubation, 250 mJ/cm^2 UVB+UVA) [%] | protective effect against the formation of ROS ([3]; concentration not stated (FIG. 1; with increasing concentration)) | protective effect against DNA damage after UV irradiation ([4]; concentration not stated (FIG. 2)) | protective effect against DNA damage after UV irradiation ([4]; reference 0.3 mM, 250 mJ/cm^2 UVB+UVA)
3-Hydroxypropioyl phytosphingosine [Ex 1c] | 2.41 | 0.58 | 4.89 | 1.92 | 8.67 | 2.55 | −1.20 | −5.55 | −6.21 | 5 | 13 | .82 | 0.98 | 0.82 |  |  |  |  |  | 
6-Hydroxyhexanoyl phytosphingosine [Ex 1b] | 5.11 | 1.38 | 7.53 | 2.51 | 12.24 | 4.38 | −6.20 | −14.36 | −15.88 |  |  | 3.33 | 4.24 | 4.63 |  |  |  |  |  | 
CCCCCCCCCCCCCCC[C@@H](O)[C@H](CO)NC(=O)C(O)C(C)(C)CO (some centres unmarked) [Ex 5b, 2-hydroxy-3,3-dimethyl-hydroxybutyroyl sphinganine] | 3.54 | 0.92 | 6.21 | 2.02 | 10.52 | 3.28 | −3.2 | −12.34 | −13.63 |  |  | 2.23 | 3.25 | 3.64 | 22 | 24 |  |  |  | 
CCCCCCCCCCCCCCC(O)C(O)C(CO)NC(=O)C(O)C(C)(C)CO (centres unmarked) [Example 5, 2-hydroxy-3,3-dimethyl-hydroxybutyroyl phytosphingosine] |  |  |  |  |  |  |  |  |  |  |  |  |  |  | 38 |  | 39 |  |  | 
CCCCCCCCCCCCCC[C@@H](O)[C@@H](O)[C@@H](N)CO [phytosphingosine] |  |  |  |  |  |  |  |  |  |  |  |  |  |  |  |  |  | No significant protective effect | cannot be demonstrated | 
O=S(=O)(O)c1cc(O)c(O)c(S(=O)(=O)O)c1 [tiron] |  |  |  |  |  |  |  |  |  |  |  |  |  |  |  |  |  |  |  | approximately 60%
Ceramide 3 [Cer 3] | 2.34 | 0.60 | 5.21 | 1.82 | 8.79 | 2.61 | 0.05 | −5.12 | −4.66 | 4 | 12 | 1.20 | 1.50 | 1.80 |  |  |  |  |  | 
